Laboratory results from ChEMBL document CHEMBL1154460, “Tryptophan-containing dipeptide derivatives as potent PPARgamma antagonists: design, synthesis, biological evaluation, and molecular modeling” (Eur J Med Chem, 2008).
The source made the active and inactive calls. The calls are words filed in the database; no cut-off is given here. Non-standard residues stand in square brackets, D forms with d. Residues, ends and D or L forms follow the SMILES beside them. *: point of attachment. 2Nal = N[C@@H](Cc1ccc2ccccc2c1)C(=O)O; Aad = N[C@@H](CCCC(=O)O)C(=O)O; OBn = c1ccc(CO*)cc1

Target: T1, Peroxisome proliferator-activated receptor gamma (Homo sapiens) (UniProt P37231)
T1 sequence (whole entry): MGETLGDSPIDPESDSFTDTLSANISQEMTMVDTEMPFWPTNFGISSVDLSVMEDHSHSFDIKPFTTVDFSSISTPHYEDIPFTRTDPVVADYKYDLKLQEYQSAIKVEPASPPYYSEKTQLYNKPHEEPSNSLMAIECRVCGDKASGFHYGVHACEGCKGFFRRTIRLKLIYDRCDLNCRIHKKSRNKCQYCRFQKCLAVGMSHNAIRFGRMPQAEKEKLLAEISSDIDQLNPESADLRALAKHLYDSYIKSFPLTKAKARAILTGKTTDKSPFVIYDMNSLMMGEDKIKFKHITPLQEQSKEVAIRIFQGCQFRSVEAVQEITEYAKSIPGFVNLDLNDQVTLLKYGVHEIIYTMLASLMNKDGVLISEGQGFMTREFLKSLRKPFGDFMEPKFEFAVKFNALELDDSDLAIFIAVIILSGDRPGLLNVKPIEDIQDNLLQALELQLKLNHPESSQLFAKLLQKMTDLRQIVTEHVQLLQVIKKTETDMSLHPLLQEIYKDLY
Test: Antagonist activity at human PPARgamma receptor expressed in Saccharomyces cerevisiae AH109 co-transfected with mouse CBP assessed as inhibition of rosiglitazone-induced LBD-CBP interaction at 10 uM by alpha-galactosidase based yeast two hybrid assay
Assay type: functional

| SMILES | inhibition |
| --- | --- |
| COC(=O)CCC[C@H](NC(=O)[C@H](N)Cc1ccccc1)C(=O)OC | inactive |
| COC(=O)CC[C@H](NC(=O)[C@@H](N)Cc1ccccc1)C(=O)OC | 3.99% |
| COC(=O)CC[C@H](NC(=O)[C@H](N)Cc1ccccc1)C(=O)OC | inactive |
| COC(=O)C[C@H](NC(=O)[C@H](N)Cc1ccccc1)C(=O)OC | inactive |
| COC(=O)[C@H](C)NC(=O)[C@@H](N)Cc1ccccc1 | inactive |
| COC(=O)[C@H](CC(C)C)NC(=O)[C@H](N)Cc1ccccc1 | inactive |
| N[C@@H](Cc1c[nH]c2ccccc12)C(=O)N[C@H](CCC(=O)OCc1ccccc1)C(=O)OCc1ccccc1 | inactive |
| N[C@@H](Cc1ccccc1)C(=O)N[C@@H](CC(=O)OCc1ccccc1)C(=O)OCc1ccccc1 (H-Phe-Asp(OBn)-OBn) | inactive |
| N[C@@H](Cc1ccccc1)C(=O)N[C@@H](CC(=O)O)C(=O)O (H-Phe-Asp-OH) | 1.12% |
| N[C@@H](Cc1ccccc1)C(=O)N[C@@H](CCC(=O)OCc1ccccc1)C(=O)OCc1ccccc1 (H-Phe-Glu(OBn)-OBn) | inactive |
| N[C@@H](Cc1ccccc1)C(=O)N[C@@H](CCC(=O)O)C(=O)O (H-Phe-Glu-OH) | 4.3% |
| N[C@@H](Cc1c[nH]c2ccccc12)C(=O)N[C@@H](CC(=O)OCc1ccccc1)C(=O)OCc1ccccc1 (H-Trp-Asp(OBn)-OBn) | 5.33% |
| COC(=O)C[C@H](NC(=O)[C@@H](N)Cc1c[nH]c2ccccc12)C(=O)OC (H-Trp-Asp(OMe)-OMe) | inactive |
| CC(C)C[C@H](NC(=O)[C@@H](N)Cc1c[nH]c2ccccc12)C(=O)OCc1ccccc1 (H-Trp-Leu-OBn) | inactive |
| CC(C)C[C@H](NC(=O)[C@@H](N)Cc1c[nH]c2ccccc12)C(=O)O (H-Trp-Leu-OH) | 58.2% |
| COC(=O)[C@H](CC(C)C)NC(=O)[C@@H](N)Cc1c[nH]c2ccccc12 (H-Trp-Leu-OMe) | 5.29% |
| COC(=O)CC[C@H](NC(=O)[C@@H](N)Cc1ccc(OC)cc1)C(=O)OC (H-Tyr(Me)-Glu(OMe)-OMe) | 5.26% |
| N[C@@H](Cc1ccc2ccccc2c1)C(=O)N[C@@H](CCC(=O)OCc1ccccc1)C(=O)OCc1ccccc1 (H-[2Nal]-Glu(OBn)-OBn) | 27.7% |
| COC(=O)CC[C@H](NC(=O)[C@@H](N)Cc1ccc2ccccc2c1)C(=O)OC (H-[2Nal]-Glu(OMe)-OMe) | 14.7% |
| N[C@@H](Cc1ccc2ccccc2c1)C(=O)N[C@@H](CCC(=O)O)C(=O)O (H-[2Nal]-Glu-OH) | 2.1% |
| COC(=O)[C@H](CC(C)C)NC(=O)[C@@H](N)Cc1ccc2ccccc2c1 (H-[2Nal]-Leu-OMe) | 4.34% |

Results, then the compound that gave them:

| inhibition | SMILES |
| --- | --- |
| 43.2% | N[C@@H](Cc1c[nH]c2ccccc12)C(=O)N[C@@H](CCC(=O)O)C(=O)O |
| 57.8% | N[C@@H](Cc1c[nH]c2ccccc12)C(=O)N[C@@H](CC(=O)O)C(=O)O |
| inactive | COC(=O)CC[C@@H](NC(=O)[C@@H](N)Cc1c[nH]c2ccccc12)C(=O)OC |
| 4.05% | COC(=O)CC[C@H](NC(=O)[C@@H](N)Cc1c[nH]c2ccccc12)C(=O)OC |
| 15.5% | N[C@@H](Cc1c[nH]c2ccccc12)C(=O)N[C@H](CC(=O)O)C(=O)O |
| 0.4% | N[C@@H](Cc1c[nH]c2ccccc12)C(=O)N[C@H](CCC(=O)O)C(=O)O |
| 0.68% | N[C@H](Cc1c[nH]c2ccccc12)C(=O)N[C@@H](CC(=O)O)C(=O)O |
| 0.42% | N[C@H](Cc1c[nH]c2ccccc12)C(=O)N[C@H](CC(=O)O)C(=O)O |
| 45% | N=C(N)NCCC[C@H](NC(=O)[C@@H](N)Cc1c[nH]c2ccccc12)C(=O)O (H-Trp-Arg-OH) |
| 36.3% | NC(=O)C[C@H](NC(=O)[C@@H](N)Cc1c[nH]c2ccccc12)C(=O)O (H-Trp-Asn-OH) |
| 38.6% | NC(=O)CC[C@H](NC(=O)[C@@H](N)Cc1c[nH]c2ccccc12)C(=O)O (H-Trp-Gln-OH) |
| 8.74% | COC(=O)CCC[C@H](NC(=O)[C@@H](N)Cc1c[nH]c2ccccc12)C(=O)OC (H-Trp-[Aad](OMe)-OMe) |
| 70% | N[C@@H](Cc1c[nH]c2ccccc12)C(=O)N[C@@H](CCCC(=O)O)C(=O)O (H-Trp-[Aad]-OH) |

Target: T2, Peroxisome proliferator-activated receptor gamma (Homo sapiens, UniProt P37231)
T2 sequence (P37231 whole entry): T1 sequence (whole entry)
Test: Antagonist activity at human PPARgamma receptor expressed in Saccharomyces cerevisiae AH109 co-transfected with mouse CBP assessed as inhibition of rosiglitazone-induced LBD-CBP interaction by alpha-galactosidase based yeast two hybrid assay
Assay type: functional

| SMILES | IC50 [µM] |
| --- | --- |
| CC(C)(c1ccc(OCC2CO2)cc1)c1ccc(OCC2CO2)cc1 (configuration not stated) | 100 |
| O=C(Nc1ccccc1)c1cc([N+](=O)[O-])ccc1Cl | 3.3 |
| O=C(O)C(Oc1cccc(C(F)(F)F)c1)c1ccc(Cl)cc1 (configuration not stated) | 0.22 |
| C=CCn1cc([N+](=O)[O-])s/c1=N\C(=O)C(C)(C)C | 0.82 |
| CC(C)C[C@H](NC(=O)[C@@H](N)Cc1c[nH]c2ccccc12)C(=O)O (H-Trp-Leu-OH) | 25.8 |
| CC(=O)NCCOC(=O)C(Oc1cccc(C(F)(F)F)c1)c1ccc(Cl)cc1 (configuration not stated) [HALOFENATE] | 40 |
| COP(=O)(OC)OC(c1ccc(Cl)cc1)P(=O)(OC)OC (configuration not stated) [MIFOBATE] | 140 |

Second part, the compound after the results:

| IC50 [µM] | SMILES |
| --- | --- |
| 8.67 | N[C@@H](Cc1c[nH]c2ccccc12)C(=O)N[C@@H](CCC(=O)O)C(=O)O |
| 5.2 | N[C@@H](Cc1c[nH]c2ccccc12)C(=O)N[C@@H](CC(=O)O)C(=O)O |
| 15.4 | N=C(N)NCCC[C@H](NC(=O)[C@@H](N)Cc1c[nH]c2ccccc12)C(=O)O (H-Trp-Arg-OH) |
| 18.4 | NC(=O)C[C@H](NC(=O)[C@@H](N)Cc1c[nH]c2ccccc12)C(=O)O (H-Trp-Asn-OH) |
| 18.7 | NC(=O)CC[C@H](NC(=O)[C@@H](N)Cc1c[nH]c2ccccc12)C(=O)O (H-Trp-Gln-OH) |
| 15.1 | N[C@@H](Cc1c[nH]c2ccccc12)C(=O)N[C@@H](CCCC(=O)O)C(=O)O (H-Trp-[Aad]-OH) |
